According to US11725096B2, “Zinc oxide complexes” (MARY KAY INC., priority 2010, dated 2023):

Columns and labels:
[1] = cited from earlier work
[2] = assay type: physicochemical
Description: (§1) Specifically, approximately 0.1 g zinc oxide/lactic acid was dissolved in 10 Ml of deionized water via vortexing. […] Specifically, approximately 0.1 g zinc oxide was mixed in 10 Ml sodium lactate solution (containing approximately 0.88 g sodium lactate in 10 Ml deionized water). The mixture was vortexed to dissolve the particles such that no large visible particles remained.

[3] = Description: To further test solubility of the zinc oxide/lactic acid complexes in a solution comprising lactic acid and water, increasing amounts of lactic acid were added to 0.725 g zinc oxide/lactic acid complexes. Specifically, the following amounts of 88% lactic acid were added to the zinc oxide/lactic acid complexes in 10 Ml deionized water: 0.0273 g, 0.0262 g, 0.0345 g, 0.0575 g, 0.0757 g, 0.1166 g, 0.1562 g, 0.1389 g, 0.1486 g, and 0.2810 g. Approximately 0.3 g zinc oxide/lactic acid complexes were also mixed with 0.0670 g or 0.2517 g 88% lactic acid.
[4] = Solubility / dissociation of the complexes in water; conditions: approximately 0.1 g in 10 Ml deionized water, after standing overnight
Description: Zinc oxide and lactic acid were mixed in an ethanol solution (reagent grade ethyl alcohol denatured with methanol and isopropyl alcohol) containing approximately 10% water at room temperature with continuous stirring using a magnetic stirrer. […] The crystals were isolated by filtering.
as §1

[O]=[Zn] [Zinc oxide, zinc oxide]
solubility in neutral aqueous solutions [1]: nearly insoluble

CC1[O][Zn]2([OH])([O]C1=O)[O]C(=O)C(C)[O]2 (centres unmarked) [zinc oxide/lactic acid complexes]
solubility in sodium lactate [2]: soluble in sodium lactate | Ph of the mixture in sodium lactate solution ([2]; approximately 0.1 g in 10 Ml sodium lactate solution, overnight): approximately 6 | solubility in lactic acid and water (appearance of the mixture) [3]: milky mixture that settles upon standing | Ph of the mixture in water [4]: approximately 6
